Measurements reported in patent US20250296960A1, “PEPTIDE COMPOSITIONS AND METHODS OF USE THEREOF” (priority 2022, published 2025).
Read-outs that look alike come from different tables or passages of the source. Numbered stars: 1 amine (or outer) side, 2 acyl side, 3 side chain; on linkers, the order of the positions; unused ones are H or OH. Square brackets hold non-standard residues; d marks the D form. Side chains are listed from the residue outwards. Ends that are not written are not given here. Peptide text beside a SMILES is read from it. * marks the point of attachment. Biotin = O=C1N[C@H]2[C@H](CS[C@H]2CCCCC(=O)*)N1; C18 diacid = O=C(O)CCCCCCCCCCCCCCCCC(=O)*; γGlu = O=C(O)[C@H](CCC(=O)[*:2])N[*:1]; AEEA = NCCOCCOCC(=O)O; Aib = CC(C)(N)C(=O)O

T1: human GIPR (Homo sapiens, UniProt P48546)
T1 construct: host or cells: CHO-K1
T1 sequence (P48546 22-466): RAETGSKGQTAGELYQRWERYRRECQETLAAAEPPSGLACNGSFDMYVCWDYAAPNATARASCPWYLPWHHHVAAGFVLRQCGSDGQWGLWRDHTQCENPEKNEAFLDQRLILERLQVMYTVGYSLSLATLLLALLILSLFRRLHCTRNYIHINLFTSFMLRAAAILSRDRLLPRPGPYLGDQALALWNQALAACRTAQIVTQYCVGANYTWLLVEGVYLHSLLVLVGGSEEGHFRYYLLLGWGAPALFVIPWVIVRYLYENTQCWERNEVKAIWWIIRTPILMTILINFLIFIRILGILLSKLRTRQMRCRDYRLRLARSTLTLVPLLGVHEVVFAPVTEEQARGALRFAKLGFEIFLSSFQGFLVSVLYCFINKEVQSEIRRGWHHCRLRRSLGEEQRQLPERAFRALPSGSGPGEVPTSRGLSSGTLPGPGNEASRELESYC

T2: human glucose-dependent insulinotropic polypeptide receptor (GIPR), expressed on CHO-K1 cells (human, UniProt P48546 22-466)
T2 sequence (looked up): T1 sequence (P48546 22-466)

B1: Peptide No. 5 (with C-terminal cysteine) (peptide)
peptide: H[Aib]QGTFTSDYSKYLDYMMARDFVQWLIEGGPSSGAPPPSC

Experiments:
human GLP-1R = target: T3, human GLP-1R (Homo sapiens, UniProt P43220); assay: cAMP assay (HitHunter cAMP) in GLP-1R-expressing CHO-K1 cells (GLP-1R+ cells); format: cell-based; conditions: Table 31
T3 construct: host or cells: CHO-K1
How it was run: (§1)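 Luminescent cAMP read-out: after 30 min peptide stimulation at 37 °C in cAMP assay buffer, receptor-expressing CHO-K1 cells (seeded 7×10^3/well the night before) received antibody and detection reagents for 1 h, then Solution A for 3 h, at room temperature in the dark.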

human GCGR = target: T4, human GCGR (Homo sapiens, UniProt P47871); assay: cAMP assay (HitHunter cAMP) in GCGR-expressing CHO-K1 cells (GCGR+ cells); format: cell-based; conditions: Table 31
T4 construct: host or cells: CHO-K1
How it was run: as §1

human GIPR = target: T1, human GIPR; assay: cAMP assay (HitHunter cAMP) in GIPR-expressing CHO-K1 cells (GIPR+ cells); format: cell-based; conditions: Table 31
How it was run: as §1

[1] = Body weight loss in high fat diet (HFD) mice, 2 weeks; format: in vivo; conditions: 20 nmol/kg s.c. Q2D
Protocol: This study was conducted to confirm the body weight loss effect and select the peptides to be evaluated in high fat diet (HFD) treated mouse, which is widely used as experimental animal model in obesity and diabetes studies. SEQ ID NOs. The peptides were delivered at 0.02% PS80 in PBS and dosing volume was 10 mL/kg. Body weight changes, blood glucose, and food intake were monitored Q2D. Animals were fasted at least 4 hours prior to blood glucose measurement.

[2] = In vitro enzymatic stability against FaSSIF/P (pancreatin in FaSSIF, pH 6.5); format: in vitro ADME; conditions: simulated gi fluid, pH 6.5, Half-life (min)
Protocol: This study was conducted to determine the enzymatic stability of SEQ ID NOs. 77, 86, 87, 89, 90, and 91 after biotinylation in artificial intestinal environment. The test samples were prepared by mixing stock solutions of peptide and pancreatin dissolved in FaSSIF solution (pH 6.5) in a weight ratio of 25:1. The test samples were incubated at 37° C. for 120 min. The sampling from test samples was proceeded at the predetermined time points (10, 30, 60, and 120 min) and stopped by 10% TFA solution.
(§2) Analytical HPLC was performed to determine the remaining amount on an ACQUITY Premier system (Waters, USA) with an ACQUITY CSH C18 column (Waters, USA) at 35° C. using 0.1% TFA in water and acetonitrile. The remaining amount was determined as a percentage of the peak area at the sampling time point relative to the peak area of the initial sample.
For the stability against FaSSIF/P, the test samples were prepared by mixing stock solutions of peptide and pancreatin dissolved in FaSSIF solution (pH 6.5) in a weight ratio of 19:1. The test samples were incubated at 37° C. for 120 min. The sampling from test samples was proceeded at the predetermined time points (10, 30, 60, and 120 min) and stopped by 10% TFA solution.

[3] = format: in vitro ADME; conditions: pH 7.8
Protocol: For the stability against trypsin, the test samples were prepared by mixing stock solutions of peptide and trypsin dissolved in 50 mM PBS (pH 7.8) containing 0.02% PS80 in a weight ratio of 10:1. The test samples were incubated at 37° C. for 180 min. The sampling from test samples was proceeded at the predetermined time points (10, 30, 60, 90, 120, and 180 min) and stopped by 10% TFA solution.
as §2

[4] = rat, in vivo, iv
Protocol: This study was conducted to evaluate the PK profile of SEQ ID NOs. 77, 102, and 103 and compare the PK profile by the different lipidated structure of peptides in rat plasma by IV administration. SEQ ID NOs. The peptides were delivered at 0.02% PS80 in PBS and dosing volume was 2.5 mL/kg.
The animals were not fasted prior to dosing. 0.2-0.4 mL of whole blood was taken from vein at each time point (0.167, 0.5, 1, 2, 4, 6, 8, 24, and 48 hr after administration) and transferred into the heparin coated tube.
The resulting plasma of 0.1-0.2 mL obtained by centrifugation of the blood samples was transferred into the tube and stored at −70° C. until analysis. The concentrations of peptides in plasma were determined by LC-MS/MS analysis.

[5] = Intestinal absorption / PK after intraduodenal administration of oral formulation in rats, serum LC-MS/MS; conditions: rat, in vivo
Protocol: This study was conducted to evaluate the intestinal absorption of peptides following enteral administration of oral pharmaceutical formulations. The pharmaceutical formulation was administered in a form of suspensions by intraduodenal (ID) injection in rats. SEQ ID_87, 89 and 90 was accurately weighed and dissolved in 10 mM PBS containing polysorbate 80 (pH 7.4, vehicle I). The mixture was vortexed for 5 min to get a clear solution. Then, 2.5 mL of vehicle was added to the mixture and vortexed for 30 min to get homogenous opaque suspension. The composition of Vehicle II was sodium chenodeoxycholate, and propyl gallate in polysorbate 80 in PBS. The animals were not fasted prior to dosing. 0.2˜ 0.4 mL of whole blood was taken from vein at each time point (0, 0.167, 0.5, 1, 2, 4, 8, 24, and 48 hrs after IV or ID administration). The collected whole blood was incubated at room temperature for 20 min and tubes were centrifugated at 13,000 rpm for 10 min at 4° C. The resulting serum 0.1˜ 0.2 mL was transferred into the tube and stored at −70° C. until analysis. The concentrations of peptides in serum were determined by LC-MS/MS analysis. PK parameters were analyzed by non-compartmental analysis using Phoenix WinNonlin 5.0.1. software (Pharsight Corporation, Mountain View, CA, USA).

[6] = target: human GLP-1 receptor (GLP-1R), expressed on CHO-K1 cells (human, UniProt P43220 24-463); assay: cell-based or functional assay
[7] = target: T2, human glucose-dependent insulinotropic …; assay: cell-based or functional assay

T3 sequence (P43220 24-463): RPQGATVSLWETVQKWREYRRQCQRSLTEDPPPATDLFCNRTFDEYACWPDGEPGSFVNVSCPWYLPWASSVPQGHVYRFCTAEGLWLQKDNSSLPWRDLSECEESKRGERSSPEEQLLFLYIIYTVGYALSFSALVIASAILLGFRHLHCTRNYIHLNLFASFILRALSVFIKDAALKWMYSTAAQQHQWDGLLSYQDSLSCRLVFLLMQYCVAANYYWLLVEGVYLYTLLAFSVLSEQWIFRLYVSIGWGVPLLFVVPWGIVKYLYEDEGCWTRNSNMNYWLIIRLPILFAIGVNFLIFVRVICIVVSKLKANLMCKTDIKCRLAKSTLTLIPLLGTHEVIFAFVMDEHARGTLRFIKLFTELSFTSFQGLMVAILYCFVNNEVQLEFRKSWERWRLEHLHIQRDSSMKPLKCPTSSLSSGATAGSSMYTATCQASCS
T4 sequence (P47871 26-477): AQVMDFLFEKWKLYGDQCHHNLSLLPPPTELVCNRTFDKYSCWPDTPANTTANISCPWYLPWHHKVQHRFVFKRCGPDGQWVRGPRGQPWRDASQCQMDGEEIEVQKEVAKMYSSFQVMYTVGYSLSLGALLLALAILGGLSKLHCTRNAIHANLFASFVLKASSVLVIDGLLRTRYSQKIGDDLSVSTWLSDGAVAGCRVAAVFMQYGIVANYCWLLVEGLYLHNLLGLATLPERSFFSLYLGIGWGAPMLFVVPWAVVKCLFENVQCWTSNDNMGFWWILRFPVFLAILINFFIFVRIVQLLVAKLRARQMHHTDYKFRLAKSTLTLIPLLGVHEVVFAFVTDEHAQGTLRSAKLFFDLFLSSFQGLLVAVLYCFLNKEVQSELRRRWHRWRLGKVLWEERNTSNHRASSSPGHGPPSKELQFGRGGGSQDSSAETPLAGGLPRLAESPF

Molecule	Ratio vs. GLP-1R, GLP-1R (human GLP-1R)	Relative % to native ligand, GLP-1R (human GLP-1R) [%]	Ratio vs. GLP-1R, GCGR (human GCGR)	Relative % to native ligand, GCGR (human GCGR) [%]	Ratio vs. GLP-1R, GIPR (human GIPR)	Relative % to native ligand, GIPR (human GIPR) [%]	body weight loss effect compared to SEQ ID NO. 77, in words [1]	half-life [2] [min]	half-life ([2]; FaSSIF/P) [min]	half-life [3] [min]	PK parameter values (half-life and AUCinf/dose), comparison in words [4]	AUCinf/dose ([4]; 100 nmol/kg) [kg·h/L]	half-life ([4]; 100 nmol/kg) [min]	AUC(0-inf) [5] [µg·h/mL]	Cmax [5] [µg/mL]	half-life [5] [min]	time at which Cmax was reached [5] [h]	EC50 (nM), cAMP assay [6] [nM]	EC50 (nM), cAMP assay [7] [nM]
CSCC[C@H](NC(=O)[C@H](CCCCNC(=O)CCCC[C@@H]1SC[C@@H]2NC(=O)N[C@@H]21)NC(=O)[C@H](CC(=O)O)NC(=O)[C@H](CC(C)C)NC(=O)[C@H](CC(C)C)NC(=O)[C@H](CCCCNC(=O)COCCOCCNC(=O)COCCOCCNC(=O)CC[C@H](NC(=O)CCCCCCCCCCCCCCCCC(=O)O)C(=O)O)NC(=O)[C@H](CO)NC(=O)[C@H](Cc1ccc(O)cc1)NC(=O)[C@H](CC(=O)O)NC(=O)[C@H](CO)NC(=O)[C@@H](NC(=O)[C@H](Cc1ccccc1)NC(=O)[C@@H](NC(=O)CNC(=O)[C@H](CCC(N)=O)NC(=O)C(C)(C)NC(=O)[C@@H](N)Cc1ccc(O)cc1)[C@@H](C)O)[C@@H](C)O)C(=O)N[C@@H](CCSC)C(=O)N[C@@H](CCC(N)=O)C(=O)N[C@@H](CCCNC(=N)N)C(=O)N[C@@H](CC(=O)O)C(=O)N[C@@H](Cc1ccccc1)C(=O)N[C@H](C(=O)N[C@@H](CCC(N)=O)C(=O)N[C@@H](Cc1c[nH]c2ccccc12)C(=O)N[C@@H](CC(C)C)C(=O)N[C@@H](CC(C)C)C(=O)N[C@@H](CCC(=O)O)C(=O)NCC(=O)NCC(=O)N1CCC[C@H]1C(=O)N[C@@H](CO)C(=O)N[C@@H](CO)C(=O)NCC(=O)N[C@@H](C)C(=O)N1CCC[C@H]1C(=O)N1CCC[C@H]1C(=O)N1CCC[C@H]1C(=O)N[C@@H](CO)C(N)=O)C(C)C [compound 86] (H-Y[Aib]QGTFTSDYSK([AEEA-AEEA-γGlu-C18 diacid])LLDK(Biotin)MMQRDFVQWLLEGGPSSGAPPPS-NH2; N-terminus and C-terminus assumed)	100	90	157	142	639	575	inferior	25.4											
CC[C@H](C)[C@H](NC(=O)[C@H](CC(C)C)NC(=O)[C@H](Cc1c[nH]c2ccccc12)NC(=O)[C@H](CC(C)C)NC(=O)[C@@H](NC(=O)[C@H](Cc1ccccc1)NC(=O)[C@H](CC(=O)O)NC(=O)CNC(=O)[C@H](C)NC(=O)[C@H](Cc1c[nH]c2ccccc12)NC(=O)[C@@H]1CCCN1C(=O)CNC(=O)[C@H](CC(=O)O)NC(=O)[C@H](CC(C)C)NC(=O)[C@H](Cc1ccc(O)cc1)NC(=O)[C@H](Cc1c[nH]c2ccccc12)NC(=O)[C@H](CO)NC(=O)[C@H](CCCCN)NC(=O)[C@H](CC(=O)O)NC(=O)[C@H](CO)NC(=O)[C@@H](NC(=O)[C@H](Cc1ccccc1)NC(=O)[C@@H](NC(=O)CNC(=O)[C@H](CCC(N)=O)NC(=O)C(C)(C)NC(=O)[C@@H](N)Cc1c[nH]cn1)[C@@H](C)O)[C@@H](C)O)C(C)C)C(=O)N[C@@H](CCC(=O)O)C(=O)NCC(=O)NCC(=O)N1CCC[C@H]1C(=O)N[C@@H](CO)C(=O)N[C@@H](CO)C(=O)NCC(=O)N[C@@H](C)C(=O)N1CCC[C@H]1C(=O)N1CCC[C@H]1C(=O)N1CCC[C@H]1C(=O)N[C@@H](CO)C(=O)N[C@@H](CS)C(=O)O [compound 77, HAibQGT FTSDKSWYLDGPWAGDFVLWLIEGGPSSGAPPPSC] (H-H[Aib]QGTFTSDKSWYLDGPWAGDFVLWLIEGGPSSGAPPPSC-OH; N-terminus and C-terminus assumed)								39.4	36.9	92.5	significantly low	156.76 ± 27.16	427 ± 24						
CSCC[C@H](NC(=O)[C@H](CCCCNC(=O)CCCC[C@@H]1SC[C@@H]2NC(=O)N[C@@H]21)NC(=O)[C@H](Cc1ccc(O)cc1)NC(=O)[C@H](CC(=O)O)NC(=O)[C@H](CC(C)C)NC(=O)[C@H](CC(C)C)NC(=O)[C@H](CCCCNC(=O)COCCOCCNC(=O)COCCOCCNC(=O)CC[C@H](NC(=O)CCCCCCCCCCCCCCCCC(=O)O)C(=O)O)NC(=O)[C@H](CO)NC(=O)[C@H](Cc1ccc(O)cc1)NC(=O)[C@H](CC(=O)O)NC(=O)[C@H](CO)NC(=O)[C@@H](NC(=O)[C@H](Cc1ccccc1)NC(=O)[C@@H](NC(=O)CNC(=O)[C@H](CCC(N)=O)NC(=O)C(C)(C)NC(=O)[C@@H](N)Cc1ccc(O)cc1)[C@@H](C)O)[C@@H](C)O)C(=O)N[C@@H](CCC(N)=O)C(=O)N[C@@H](CCCNC(=N)N)C(=O)N[C@@H](CC(=O)O)C(=O)N[C@@H](Cc1ccccc1)C(=O)N[C@H](C(=O)N[C@@H](CCC(N)=O)C(=O)N[C@@H](Cc1c[nH]c2ccccc12)C(=O)N[C@@H](CC(C)C)C(=O)N[C@@H](CC(C)C)C(=O)N[C@@H](CCC(=O)O)C(=O)NCC(=O)NCC(=O)N1CCC[C@H]1C(=O)N[C@@H](CO)C(=O)N[C@@H](CO)C(=O)NCC(=O)N[C@@H](C)C(=O)N1CCC[C@H]1C(=O)N1CCC[C@H]1C(=O)N1CCC[C@H]1C(=O)N[C@@H](CO)C(N)=O)C(C)C [compound 87] (H-Y[Aib]QGTFTSDYSK([AEEA-AEEA-γGlu-C18 diacid])LLDYK(Biotin)MQRDFVQWLLEGGPSSGAPPPS-NH2; N-terminus and C-terminus assumed)	100	110	60	66	281	308	inferior	16.4						1.86	0.29	370	0.25		
B1																		0.0605	13.2
